Results published in patent US6534516B1, “Androgen receptor modulator compounds and methods” (Ligand Pharmaceuticals Incorporated, priority 1996, dated 2003).
Where two headings read alike, the source gives them in different places.

How the values were obtained:
[1] = target: T1, human AR (Homo sapiens, UniProt P10275); assay: cell-based; format: cell-based; conditions: for EC50: read-out: AR Agonist CV-1 Cells Potency
T1 construct: expressed in transfected cells; host or cells: CV-1 cells (African green monkey kidney fibroblasts)
T1 sequence (P10275 1-920): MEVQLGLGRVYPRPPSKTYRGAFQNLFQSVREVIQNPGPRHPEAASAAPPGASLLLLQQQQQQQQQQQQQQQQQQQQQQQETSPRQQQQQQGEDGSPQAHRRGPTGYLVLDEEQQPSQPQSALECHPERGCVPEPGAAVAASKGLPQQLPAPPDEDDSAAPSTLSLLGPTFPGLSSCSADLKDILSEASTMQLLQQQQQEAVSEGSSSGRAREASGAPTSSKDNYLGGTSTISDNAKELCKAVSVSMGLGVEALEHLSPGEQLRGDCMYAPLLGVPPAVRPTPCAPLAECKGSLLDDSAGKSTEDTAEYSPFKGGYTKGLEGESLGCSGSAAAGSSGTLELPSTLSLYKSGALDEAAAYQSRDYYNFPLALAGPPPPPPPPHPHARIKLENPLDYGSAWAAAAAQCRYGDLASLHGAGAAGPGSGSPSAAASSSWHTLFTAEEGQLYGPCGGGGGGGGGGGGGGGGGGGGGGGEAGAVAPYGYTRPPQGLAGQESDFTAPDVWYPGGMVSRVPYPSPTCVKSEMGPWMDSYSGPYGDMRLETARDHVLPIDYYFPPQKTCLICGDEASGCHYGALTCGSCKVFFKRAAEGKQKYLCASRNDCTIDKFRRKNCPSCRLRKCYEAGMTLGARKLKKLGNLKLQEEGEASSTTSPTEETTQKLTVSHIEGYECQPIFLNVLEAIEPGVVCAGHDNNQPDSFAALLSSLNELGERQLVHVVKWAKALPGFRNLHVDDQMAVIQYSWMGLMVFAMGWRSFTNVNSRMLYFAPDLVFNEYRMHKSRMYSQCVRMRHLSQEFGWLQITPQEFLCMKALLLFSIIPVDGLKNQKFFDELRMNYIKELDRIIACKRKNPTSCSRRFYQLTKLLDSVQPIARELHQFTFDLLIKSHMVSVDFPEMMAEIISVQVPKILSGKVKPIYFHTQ
From the text: The co-transfection assay provides a method for identifying functional agonists and partial agonists which mimic, or antagonists which inhibit, the effect of native hormones, and quantifying their activity for responsive IR proteins. In this regard, the co-transfection assay mimics an in vivo system in the laboratory. Importantly, activity in the co-transfection assay correlates very well with known in vivo activity, such that the co-transfection assay functions as a qualitative and quantitative predictor of a tested compounds in vivo pharmacology. See, e.g., T. Berger et al. 41 J. Steroid Biochem. Molec.
CV-1 cells (African green monkey kidney fibroblasts) were cultured in the presence of Dulbecco's Modified Eagle Medium (DMEM) supplemented with 10% charcoal resin-stripped fetal bovine serum then transferred to 96-well microtiter plates one day prior to transfection.
The reporter plasmid, MTV-LUC, contains the cDNA for firefly luciferase (LUC) under control of the mouse mammary tumor virus (MTV) long terminal repeat, a conditional promoter containing an androgen response element. See e.g., Berger et al. supra. In addition, pRS-β-Gal, coding for constitutive expression of E. coli β-galactosidase (β-Gal), was included as an internal control for evaluation of transfection efficiency and compound toxicity.
Three to four replicates were used for each sample.
After 40 hours, the cells were washed with PBS, lysed with a Triton X-100-based buffer and assayed for LUC and β-Gal activities using a luminometer or spectrophotometer, respectively. For each replicate, the normalized response (NR) was calculated as:
where β-Gal rate=β-Gal•1×10^−5/β-Gal incubation time.

[2] = target: T1, human AR; assay: cell-based; conditions: read-out: AR Binding Ki
[3] = tested on: immature castrated male rat; assay: Immature castrated male rat model with testosterone silastic implant, ventral prostate and seminal vesicle weights; format: in vivo; conditions: for ED50: Rattus norvegicus, 72 h; for effect on ventral prostate and seminal vesicle weights (in words): Tables 5 and 6
From the text: The activity of selected compounds of the present invention as AR antagonists was *~ investigated in an immature castrated male rat model. A recognized test of the antiandrogen activity of a given compound, as described in L. G. Hershberger et al., 83 Proc. Soc. Exptl. […] Similar approaches have been used in the rat and in hamsters. […] Dermatol.
The basis of this assay is the fact that male sexual accessory organs, such as the prostate and seminal vesicles, play an important role in reproductive function. […] See F. Labrie et al., 16 Clin. Invest. […] However, this is not a major pathway since, in both animals and humans, castration without concomitant adrenalectomy leads to almost complete involution of the prostate and seminal vesicles. […] See M. C. […] Since the male sex organs are the tissues most responsive to modulation by androgen activity, this model is used to determine the androgen-dependent growth of the sex accessory organs in immature castrated rats.
Immature male rats (50-60 g, 21 day-old Sprague-Dawley, Harlan) were castrated under metofane anesthesia. […] As a negative control, a group of castrated animals received empty 10 mm silastic implants. Animal groups were dosed for 3 days by oral gavage as follows:
At the end of the 3-day treatment, the animals were sacrificed, and the ventral prostates and seminal vesicles were collected and weighed. Organ weight data were normalized to body weight of each animal and expressed as mg/100 g body weight. Results were analyzed by analysis of variance followed by the Dunnett's test. Data were transformed to comply with the normality and variance homogeneity criteria required to utilize the analysis of variance and Dunnett's test. The following data transformations were used for the ventral prostate and seminal vesicle: square root and power 0.7 respectively. Thereafter, the data were fitted to a four-parameter logistic equation and potencies derived from the fitted estimates. The same data transformations were used for the equation-fitting phase of the data analysis.
The gain and loss of sexual organ weights reflect the changes of cell number (DNA content) and cell mass (protein content), depending upon the serum androgen concentrations. […] Therefore, measurement of organ wet weights is sufficient to indicate the bioactivity of androgens and androgen antagonists.

[4] = agonist mode, percent maximal response relative to reference agonist DHT, na = not active (efficacy < 10 and potency > 10,000)
[5] = antagonist mode, DHT at its EC50, % of maximal inhibition, na = not active
[6] = read-out: AR Antagonist CV-1 Cells Potency
[7] = oral, 3 days, four-parameter logistic fit, number of experiments in parentheses, read-out: Potency (ED50) Weighted Average ± SE, Seminal Vesicle Weight
[8] = oral, 3 days, four-parameter logistic fit, number of experiments in parentheses, read-out: Potency (ED50) Weighted Average ± SE, Ventral Prostate Weight
[9] = T implant + 0.1 mg/kg oral, 3 days
[10] = T implant + 1 mg/kg oral, 3 days
[11] = T implant + 3 mg/kg oral, 3 days
[12] = T implant + 10 mg/kg oral, 3 days
[13] = T implant + 30 mg/kg oral, 3 days
[14] = T implant + 100 mg/kg oral, 3 days

With CC12CCCN1c1cc3[nH]c(=O)cc(C(F)(F)F)c3cc1CC2 (racemic) [Compound 101, (R/S)-6,7,7a,11-Tetrahydro-7a-methyl-4-trifluoromethyl-2-pyridono[5,6-g]pyrrolidino[1,2-a]quinoline] the “AR Antagonist CV-1 Cells Efficacy” value [1] was 86 ± 6% and the IC50 [1] was 0.325 ± 0.068 µM.

CCC1CCN(C=O)c2cc3[nH]c(=O)cc(C(F)(F)F)c3cc21 (racemic) [Compound 121, (R/S)-4-Ethyl-1-formyl-1,2,3,4-tetrahydro-6-(trifluoromethyl)-8-pyridono[5,6-g]quinoline] was tested, and the “AR Agonist CV-1 Cells Efficacy” value [1] was 72 ± 20% and the EC50 [1] was 0.15 ± 0.039 µM.

In the case of CCC1CCN(C(=O)C(F)(F)F)c2cc3[nH]c(=O)cc(C(F)(F)F)c3cc21 (racemic) [Compound 122, (R/S)-4-Ethyl-1,2,3,4-tetrahydro-1-(trifluoroacetyl)-6-(trifluoromethyl)-8-pyridono[5,6-g]quinoline], the “AR Agonist CV-1 Cells Efficacy” value [1, 4] is reported as 100 ± 17%, the EC50 [1] is reported as 0.003 µM and the Ki [2] is reported as 0.007 ± 0.002 µM.

With CCC1CCNc2c1cc1c(C(F)(F)F)cc(=O)[nH]c1c2[N+](=O)[O-] (racemic) [Compound 124, (R/S)-4-Ethyl-1,2,3,4-tetrahydro-10-nitro-6-(trifluoromethyl)-8-pyridono[5,6-g]quinoline] the “AR Agonist CV-1 Cells Efficacy” value [1, 4] was 50 ± 1% and the EC50 [1] was 0.202 ± 0.018 µM.

In the case of CC(O)(CS(=O)(=O)c1ccc(F)cc1)C(=O)Nc1ccc(C#N)c(C(F)(F)F)c1 (stereo not shown) [Casodex], the ED50 ([3]; po, read-out: Potency (ED50) Weighted Average ± SE, Seminal Vesicle Weight) is reported as 7.8 ± 0.9 mg/kg, the ED50 ([3]; po, read-out: Potency (ED50) Weighted Average ± SE, Ventral Prostate Weight) is reported as 7 ± 0.9 mg/kg and the “effect on ventral prostate and seminal vesicle weights (in words)” value [3] is reported as “dose-dependent decrease”.

In the case of O=c1cc(C(F)(F)F)c2cc3c4c(c2[nH]1)CCCN4CCC3 [Compound 12, 11-(Trifluoromethyl)-9-pyridono[6,5-i]julolidine], the “AR Antagonist CV-1 Cells Efficacy” value [1, 5] is reported as 53 ± 16 % and the IC50 [1, 6] is reported as 2.37 ± 0.215 µM.

For Cn1c(=O)cc(C(F)(F)F)c2cc3c4c(c21)CCCN4CCC3 [Compound 13, 8-Methyl-11-(trifluoromethyl)-9-pyridono[6,5-i]julolidine], the “AR Antagonist CV-1 Cells Efficacy” value [1, 5] was 84 ± 6% and the IC50 [1, 6] was 0.726 ± 0.084 µM.

CC1=CC(C)(C)Nc2c1cc1c(C(F)(F)F)c(F)c(=O)[nH]c1c2C [Compound 114, 7-Fluoro-1,2-dihydro-2,2,4, 10-tetramethyl-6-trifluoromethyl-8-pyridono[5,6-g]quinoline] was tested, and the “AR Antagonist CV-1 Cells Efficacy” value [1, 5] was 90 ± 1% and the IC50 [1, 6] was 0.203 ± 0.066 µM.

Cc1c2c(cc3c(C(F)(F)F)c(F)c(=O)n(C)c13)C(C)CC(C)(C)N2 (stereo not shown) [Compound 116, 7-Fluoro-1,2,3,4-tetrahydro-2,2,4,9,10-pentamethyl-6-trifluoromethyl-8-pyridono[5,6-g]quinoline] was tested, and the “AR Antagonist CV-1 Cells Efficacy” value [1, 5] was 20% and the IC50 [1, 6] was 1.46 µM.

In the case of Cc1c2c(cc3c(C(F)(F)F)c(F)c(=O)[nH]c13)C(C)CC(C)(C)N2C (stereo not shown) [Compound 117, 7-Fluoro-1,2,3,4-tetrahydro-1,2,2,4,10-pentamethyl-6-trifluoromethyl-8-pyridono[5,6-g]quinoline], the “AR Antagonist CV-1 Cells Efficacy” value [1, 5] is reported as 82 ± 1% and the IC50 [1, 6] is reported as 0.394 ± 0.075 µM.

CC1(C)CCc2cc3c(C(F)(F)F)cc(=O)[nH]c3c([N+](=O)[O-])c2N1 [Compound 125, 1,2,3,4-Tetrahydro-2,2-dimethyl-10-nitro-6-(trifluoromethyl)-8-pyridono[5,6-g]quinoline] was tested, and the “AR Antagonist CV-1 Cells Efficacy” value [1, 5] was 73% and the IC50 [1, 6] was 1.34 µM.

In the case of CC1(C)CCc2cc3c(C(F)(F)F)c([N+](=O)[O-])c(=O)[nH]c3c([N+](=O)[O-])c2N1 [Compound 126, 1,2,3,4-Tetrahydro-2,2-dimethyl-7,10-dinitro-6-(trifluoromethyl)-8-pyridono[5,6-g]quinoline], the IC50 [1] is reported as 5.24 ± 0.363 µM and the “AR Antagonist CV-1 Cells Efficacy” value [1, 5] is reported as 44 ± 2 %.

With CC(C)C(=O)Nc1ccc([N+](=O)[O-])c(C(F)(F)F)c1 [Flutamide, 2-methyl-N-[4-nitro-3-(trifluoromethyl)phenyl]propanamide] the ED50 [3, 7] was 3.3 ± 0.4 mg/kg, the ED50 [3, 8] was 4 ± 0.6 mg/kg and the “Seminal Vesicles weight” value [3, 9] was 31.1 ± 0.9 (5) mg/100 g body weight. The “Ventral Prostate weight” value [3, 9] was 78.9 ± 3.5 (5) mg/100 g body weight, the “Seminal Vesicles weight” value [3, 10] was 27.9 ± 2.5 (5) mg/100 g body weight and the “Ventral Prostate weight” value [3, 10] was 73.1 ± 4.6 (5) mg/100 g body weight. For the same molecule, the “Seminal Vesicles weight” value [3, 11] was 22.7 ± 0.9 (5) mg/100 g body weight, the “Ventral Prostate weight” value [3, 11] was 62.4 ± 3.7 (5) mg/100 g body weight and the “Seminal Vesicles weight” value [3, 12] was 12.4 ± 1.8 (5) mg/100 g body weight. The “Ventral Prostate weight” value [3, 12] was 43.0 ± 3.6 (5) mg/100 g body weight, the “Seminal Vesicles weight” value [3, 13] was 9.1 ± 1.3 (5) mg/100 g body weight and the “Ventral Prostate weight” value [3, 13] was 28.4 ± 3.1 (5) mg/100 g body weight. For the same molecule, the “Seminal Vesicles weight” value [3, 14] was 9.9 ± 0.4 (5) mg/100 g body weight, the “Ventral Prostate weight” value [3, 14] was 29.9 ± 1.8 (5) mg/100 g body weight and the “effect on ventral prostate and seminal vesicle weights (in words)” value [3] was “dose-dependent decrease”.

With CC1(C)CCc2cc3c(C(F)(F)F)cc(=O)[nH]c3cc2N1 [LG120907, 1,2,3,4-Tetrahydro-2,2-dimethyl-6-trifluoromethyl-8-pyridono[5,6-g]quinoline] the ED50 [3, 7] was 19.2 ± 2.8 mg/kg, the ED50 [3, 8] was 18.3 ± 4.8 mg/kg and the “Seminal Vesicles weight” value [3, 9] was 32.9 ± 1.2 (5) mg/100 g body weight. The “Ventral Prostate weight” value [3, 9] was 78.5 ± 2.0 (5) mg/100 g body weight, the “Seminal Vesicles weight” value [3, 10] was 28.9 ± 1.4 (5) mg/100 g body weight and the “Ventral Prostate weight” value [3, 10] was 57.3 ± 1.8 (5) mg/100 g body weight. For the same molecule, the “Seminal Vesicles weight” value [3, 11] was 31.7 ± 2.9 (5) mg/100 g body weight, the “Ventral Prostate weight” value [3, 11] was 66.4 ± 5.6 (5) mg/100 g body weight and the “Seminal Vesicles weight” value [3, 12] was 28.2 ± 1.8 (5) mg/100 g body weight. The “Ventral Prostate weight” value [3, 12] was 59.9 ± 2.7 (5) mg/100 g body weight, the “Seminal Vesicles weight” value [3, 13] was 16.5 ± 0.8 (5) mg/100 g body weight and the “Ventral Prostate weight” value [3, 13] was 47.4 ± 2.9 (5) mg/100 g body weight. The “Seminal Vesicles weight” value [3, 14] was 10.4 ± 1.0 (5) mg/100 g body weight and the “Ventral Prostate weight” value [3, 14] was 20.2 ± 2.0 (5) mg/100 g body weight.
